# PubChem BioAssay (NCI)
#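 Briefly, cells in 96-well plates were exposed to five compound concentrations for 48 h, and endpoints were estimated by linear interpolation. GI50 marks 50% less growth. Definition used: TGI = concentration required for complete inhibition of growth.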 Where a SMILES comes first, the peptide text is derived from it. [ ]: non-standard residue; d: D form. The star is where a group is joined. ξ: configuration not given here. ξD = NC(CC(=O)O)C(=O)O; Ac3c = NC1(C(=O)O)CC1; Boc = CC(C)(C)OC(=O)*; OBn = c1ccc(CO*)cc1
# What was measured:
# Test in all cases: NCI anticancer screen, dose series, 48 h
# MALME-3M melanoma = test system: MALME-3M melanoma
# OVCAR-5 ovarian = test system: OVCAR-5 ovarian
# K-562 leukemia = test system: K-562 leukemia
# MDA-MB-231 breast = test system: MDA-MB-231 breast
# KM12 colon = test system: KM12 colon
# RPMI-8226 leukemia = test system: RPMI-8226 leukemia
# LOX IMVI melanoma = test system: LOX IMVI melanoma
# SF-539 CNS = test system: SF-539 CNS
# SK-MEL-5 melanoma = test system: SK-MEL-5 melanoma
# M14 melanoma = test system: M14 melanoma
SMILES,TGI (MALME-3M melanoma),TGI (OVCAR-5 ovarian),TGI (K-562 leukemia),TGI (MDA-MB-231 breast),TGI (KM12 colon),TGI (RPMI-8226 leukemia),TGI (LOX IMVI melanoma),TGI (SF-539 CNS),TGI (SK-MEL-5 melanoma),TGI (M14 melanoma),GI50 (MALME-3M melanoma),GI50 (OVCAR-5 ovarian),GI50 (K-562 leukemia),GI50 (MDA-MB-231 breast),GI50 (KM12 colon),GI50 (RPMI-8226 leukemia),GI50 (LOX IMVI melanoma),GI50 (SF-539 CNS),GI50 (SK-MEL-5 melanoma),GI50 (M14 melanoma)
c1cc(C[S+]2CCCC2)ccc1C[S+]1CCCC1,> 100 µM,> 100 µM,> 100 µM,> 100 µM,> 100 µM,> 100 µM,> 100 µM,> 100 µM,> 100 µM,> 100 µM,,,,,,,,,,
COC(=O)c1ccc(CCc2cc(O)ccc2O)cc1,22.5 µM,50.7 µM,> 31.6 µM,29.9 µM,27.5 µM,4.16 µM,22.7 µM,19.6 µM,25.7 µM,27.8 µM,,,,,,,,,,
Nc1ccc(-c2nc3cc(F)ccc3s2)cc1I,72.9 µM,43 µM,> 100 µM,30.4 µM,> 100 µM,> 100 µM,> 100 µM,29.8 µM,> 70.4 µM,> 100 µM,,,,,,,,,,
COc1ccc(C(=C(I)c2ccccc2)c2ccc(OC)cc2)cc1,> 100 µM,> 100 µM,> 100 µM,> 100 µM,> 100 µM,> 100 µM,> 100 µM,> 100 µM,> 100 µM,> 100 µM,,,,,,,,,,
Nc1ccccc1NC(=O)CCCCCCC(=O)Nc1ccc2c(c1)/C(=C/c1ccc[nH]1)C(=O)N2,> 100 µM,> 100 µM,> 100 µM,> 100 µM,> 100 µM,> 100 µM,> 100 µM,> 100 µM,> 100 µM,> 100 µM,6.2 µM,> 100 µM,8.75 µM,> 100 µM,1.45 µM,2.47 µM,> 100 µM,1.32 µM,> 100 µM,69.2 µM
O=c1c2ccccc2n2nnc3ccc(NCCCNCCNCCCNc4ccc5nnn6c7ccccc7c(=O)c4c56)c1c32,> 50 µM,18.1 µM,> 50 µM,7.37 µM,> 22.5 µM,> 12.4 µM,24 µM,8.46 µM,> 50 µM,> 30 µM,,,,,,,,,,
N/N=C1/C(=N/O)CCc2nonc21,> 100 µM,> 100 µM,> 100 µM,> 100 µM,> 100 µM,> 100 µM,> 100 µM,> 100 µM,> 100 µM,> 100 µM,,,,,,,,,,
O=C(/C=C/c1ccc(-c2ccccc2)cc1)NCc1ccc(C(=O)NCCc2c[nH]c3ccccc23)cc1,> 100 µM,66.6 µM,45.6 µM,42.1 µM,> 100 µM,> 100 µM,> 100 µM,> 100 µM,> 100 µM,> 100 µM,,,,,,,,,,
C=CC(C)(C)N[C@@H](C(=O)N1CCC[C@H]1c1nc(-c2nc(C(=O)OCC=C(C)C)c(C)o2)c(C)o1)C(C)C,39 µM,> 100 µM,> 100 µM,51.3 µM,60.3 µM,61.8 µM,> 100 µM,38.3 µM,52 µM,83.4 µM,,,,,,,,,,
C=CCN(c1cc(OCc2ccccc2)c(NC(C)=O)cc1[N+](=O)[O-])S(C)(=O)=O,73.2 µM,> 100 µM,> 100 µM,29.5 µM,> 100 µM,> 100 µM,> 100 µM,31.8 µM,> 100 µM,> 100 µM,,,,,,,,,,
O=C(Nc1nnc(-c2ccccc2)o1)C(SC(=S)N1CCOCC1)c1ccccc1 (stereo not given),> 100 µM,88.8 µM,> 100 µM,> 100 µM,> 100 µM,> 100 µM,> 100 µM,> 100 µM,38.7 µM,> 100 µM,,,,,,,,,,
CCCC(CC)c1c(O)c(O)c(C(CC)CCC)c(C(CC)CCC)c1C(CC)CCC (stereo not given),> 10 µM,> 10 µM,> 10 µM,> 10 µM,> 10 µM,> 10 µM,> 10 µM,> 10 µM,> 10 µM,> 10 µM,,,,,,,,,,
COCN1CCN=c2c1c1c3c(c4ccccc4n23)CCC1,> 100 µM,> 100 µM,> 100 µM,> 100 µM,> 100 µM,> 100 µM,> 100 µM,> 100 µM,> 100 µM,> 100 µM,,,,,,,,,,
O=c1[nH]c2ccccc2nc1/C=C(\O)C(F)F,> 100 µM,> 100 µM,> 100 µM,> 100 µM,> 100 µM,> 100 µM,> 100 µM,> 100 µM,> 100 µM,> 100 µM,,,,,,,,,,
O=C(OCCN1CCCCC1)C(c1ccccc1)C1(O)CCSCC1 (stereo not given),> 100 µM,> 100 µM,> 100 µM,> 100 µM,> 100 µM,> 100 µM,> 100 µM,> 100 µM,> 100 µM,> 100 µM,,,,,,,,,,
CC(C)[C@H]1NC(=O)[C@H]2N=C(O[C@@H]2C)[C@@H]2CCCN2C(=O)[C@H](Cc2ccccc2)NC(=O)[C@@H]2CSC(=N2)[C@@H](Cc2ccccc2)NC(=O)[C@@H]2CSC1=N2,> 100 µM,> 100 µM,> 100 µM,> 100 µM,> 100 µM,94.9 µM,> 100 µM,> 100 µM,> 100 µM,> 100 µM,,,,,,,,,,
O=c1[nH]c2cc3cccnc3c(Cl)c2nc1C(F)(F)F,> 100 µM,> 100 µM,> 100 µM,> 100 µM,63.7 µM,> 100 µM,> 100 µM,> 100 µM,29.8 µM,> 100 µM,,,,,,,,,,
N#Cc1c(N2CCCC2)ncn(Cc2ccccc2)c1=S,> 100 µM,> 100 µM,> 100 µM,> 100 µM,> 100 µM,> 100 µM,> 100 µM,> 100 µM,> 100 µM,> 100 µM,,,,,,,,,,
COc1ccc(-c2nc(-c3cc4ccccc4oc3=O)cs2)cc1,> 100 µM,> 100 µM,> 100 µM,53.8 µM,> 100 µM,> 100 µM,> 100 µM,> 100 µM,> 100 µM,> 100 µM,,,,,,,,,,
COC(=O)c1ccccc1C#CCCCOS(C)(=O)=O,> 10 µM,> 10 µM,> 10 µM,> 10 µM,> 10 µM,> 10 µM,> 10 µM,> 10 µM,> 10 µM,> 10 µM,,,,,,,,,,
Cc1ccc(S(=O)(=O)NC(=O)NCCC(=O)O)cc1,> 100 µM,> 100 µM,> 100 µM,> 100 µM,> 100 µM,> 100 µM,> 100 µM,> 100 µM,> 100 µM,> 100 µM,,,,,,,,,,
NCCNCCCCCCNC(=O)c1cccc2cc3ccccc3nc12,7.92 µM,14 µM,6.77 µM,7.13 µM,4.93 µM,6.82 µM,2.96 µM,3.88 µM,13.4 µM,3.6 µM,,,,,,,,,,
CC(C)(C)n1c(=O)n(C(=O)C(Cl)(Cl)Cl)n(C(=O)C(Cl)(Cl)Cl)c1=O,> 100 µM,> 100 µM,> 100 µM,> 100 µM,> 100 µM,> 100 µM,> 100 µM,> 100 µM,> 100 µM,> 100 µM,,,,,,,,,,
Cc1cc2ccccc2n1CC(=O)N1CCCC1,> 100 µM,> 100 µM,> 100 µM,> 100 µM,> 100 µM,> 100 µM,> 100 µM,> 100 µM,> 100 µM,> 100 µM,,,,,,,,,,
COc1ccc2c(c1)nc1n2C(N)=Nc2ccccc2S1,> 100 µM,> 100 µM,> 57.8 µM,> 100 µM,34.2 µM,> 82.2 µM,> 72.8 µM,> 100 µM,> 61.9 µM,> 80.6 µM,,,,,,,,,,
COC(=O)C1(NC(=O)C(CC(=O)OCc2ccccc2)NC(=O)OC(C)(C)C)CC1 (stereo not given) (Boc-[ξD](OBn)-[Ac3c]-OMe),> 100 µM,> 100 µM,> 100 µM,> 100 µM,> 100 µM,> 100 µM,> 100 µM,> 100 µM,> 100 µM,> 100 µM,,,,,,,,,,
COc1ccc(/C=C(\C(=C/c2ccc(OC)cc2)[N+](=O)[O-])[N+](=O)[O-])cc1,11.9 µM,35.4 µM,> 34.5 µM,5.56 µM,36.2 µM,13 µM,5 µM,5.71 µM,15.9 µM,18.2 µM,,,,,,,,,,
C[C@H](CC[C@@H](O)C(C)(C)O)[C@H]1CC[C@@]2(C)[C@@H]3CC=C4[C@@H](CC[C@H](O)C4(C)C)[C@]3(C)C(=O)C[C@]12C,> 50 µM,> 50 µM,> 50 µM,> 50 µM,49.2 µM,29.8 µM,> 50 µM,> 50 µM,> 50 µM,> 50 µM,,,,,,,,,,
Cc1ccc(NC(=S)Nc2c(C)n(C)n(-c3ccccc3)c2=O)cc1,> 100 µM,> 100 µM,> 100 µM,> 100 µM,> 100 µM,> 100 µM,> 100 µM,> 100 µM,> 100 µM,> 100 µM,,,,,,,,,,
Cc1cc(NS(=O)(=O)c2ccc(NC(=O)c3cccc4c(NNc5ccc(S(=O)(=O)N=C(N)N)cc5)c5ccccc5nc34)cc2)no1,> 100 µM,> 100 µM,> 100 µM,> 100 µM,> 100 µM,> 100 µM,> 100 µM,> 100 µM,> 100 µM,> 100 µM,,,,,,,,,,
